Data: US20060035964A1, “Hypoglycemic agent, liver protecting agent and anticancer agent containing lignans originating in hongdoushan” (priority 2002, published 2006)
Values after ≈ are worked out from the molar mass of the structure shown.

How the values were obtained:
[1] = DPPH free radical scavenging activity; settings: DPPH 60 μM ethanol solution, 30 minutes room temperature, absorbance 520 nm
Description: 500 μL of each test compound dissolved in ethanol or aqueous solution was mixed with 500 μL of DPPH (1,1-diphenyl 1-2-picrylhydrazyl) ethanol solution (concentration: 60 μM). The mixtures were left at room temperature for 30 minutes, and then their absorbance was measured at 520 nm. The measurements were carried out for each test compound at different concentrations.

[2] = system: diabetic rats induced by injecting STZ; assay: Decrease activity in blood glucose level in STZ-induced diabetic rats; assay type: in vivo, rat; settings: STZ diabetic Wistar rats; for Reduction of blood glucose level: 10 mg/kg into abdominal cavity 5 times at 12 h intervals (positive control: tolbutamide 200 mg/kg + buformin 1 mg/kg)
Description: Activities of compounds of lignans and hongdoushan fractions in decreasing blood glucose level were assessed by using rats.
Blood serums were obtained after the blood cell separation of the whole blood samples collected from the rats. Measurement of the blood glucose level was carried out by using the blood serum, a Glucose CII-TEST WAKO (manufactured by Wako Pure Chemical Industries, Ltd.) as a reagent and a UV-160A (manufactured by Shimadzu Corporation) as an instrument for absorbance measurement.
Male rats of Wistar strains (age: 5-6 weeks, weight: 180-200 g) kept fast for 16 hours. Then, citrate buffer solution (pH 4.2) of streptozocin (hereinafter called “STZ”) was injected into the rats' abdominal cavity in a dose of 55 mg/kg (weight of rat). Blood samples were taken from the tail vein of the rats 5 days after the injection, to measure blood glucose level. Rats with blood glucose level higher than 250 mg/dL were considered to be diabetic and were used for the tests.
Compounds or fractions were injected into the abdominal cavity of the diabetic rats in a dose of 10 mg/kg (weight of rat) 5 times at intervals of 12 hours. Blood samples were taken from the tail veins of the rats to measure the blood glucose level. Averages and standard deviations of measured values were calculated for groups, each of which had 4 rats. The groups included a negative control group, which was given normal saline solution, and a positive control group of said diabetic rats, which were given a mixture of tolbutamide in a dose of 200 mg/kg (weight of rat) and buformin in a dose of 1 mg/kg (weight of rat) through their abdominal cavity.

[3] = system: D-GalN/LPS-induced hepatic damage in mice; assay: D-GalN/LPS-induced hepatic damage model; assay type: in vivo, mouse; settings: for Histopathological observation of hepatic cells (apoptosis): 8 hours after the injection of D-GalN/LPS, compared with control group; for GOT level in blood serum / GPT level in blood serum / TNF-α level in blood serum: ddY mice, subcutaneous 10 mg/kg and 50 mg/kg; for GOT level in blood serum / GPT level in blood serum: 12 h and 1 h before D-GalN/LPS, measured 8 hours after injection; for TNF-α level in blood serum: measured 90 minutes after D-GalN/LPS injection, ELISA
Description: Evaluation by D-galactosamine (hereinafter called “D-GalN”)/Lipopolysaccharide (hereinafter called “LPS”)-induced hepatic damage model (J. Wang et al., Biochem. Pharm., 39, 267 (1990), A. Wendel et al., Biochem. Pharm., 35, 2115 (1986))
Male mice of ddY strains (age: 6 weeks) kept fast for 12 hours, and then hepatic damage was induced in the mice by injecting D-GalN (700 mg/kg)/LPS (10 μg/kg) into their abdominal cavity. Test compounds were given subcutaneously to the mice 2 times: 12 hours and 1 hour before the injection of D-GalN/LPS. They were arranged into 2 groups which were given test compounds: a group in a dose of 50 mg/kg (weight of rat), and a group in a dose of 10 mg/kg (weight of rat). There were also a control group which was given normal saline solution and a group which was given silymarin, a known hepatoprotective agent, (subcutaneous administration in a dose of 100 mg/kg) for comparison of medicinal benefits.
Tumor necrosis factor alpha (hereinafter called “TNF-α”) level in the blood was measured 90 minutes after the injection of D-GalN/LPS. Furthermore, levels of GPT (glutamic-pyruvic transaminase) and GOT (glutamic oxaloacetic transaminase) in the blood were measured 8 hours after the injection.
TNF-α level was measured by means of the ELISA method using an anti-mouse TNF-α antibody (manufactured by Endogen, Inc., USA), and levels of GPT and GOT were measured by using a Transaminase CII-Test kit (manufactured by Wako Pure Chemical Industries, Ltd.).
The hepatic damage mechanism induced in this damage model is thought to have high correlativity with clinical results as a model of immunological hepatic damage outbreak because of a series of process such as activation of cells involved in immunity, infiltration into hepatic tissues, secretion of cytokine and autocoid such as leukotriene D4 and TNF-α, and apoptosis of hepatic cells.

[4] = system: primary cultured mouse hepatocytes; assay: Inhibitory activity on TNF-α-induced cell death in primary cultured mouse hepatocytes (MTT); assay type: cell-based; settings: D-galactosamine 0.5 mM + TNF-α 100 ng/mL; compounds at 200, 100, 50 and 10 μM; 18 hours; compared with Control
Description: Hepatic parenchymal cells were separated from the lives of male mice of ddY strains by means of a collagenase recirculation method. The separated hepatic parenchymal cells were suspended in the William's E culture medium, which was supplemented with 10% calf blood serum, 100 IU/mL penicillin G, 100 µg/mL streptomycin, 100 μM dexamethasone, and 50 ng/mL insulin, and incubated in a 96-well plastic plate (1.5×10^4 cells/well). The culture medium was replaced with a fresh culture medium containing D-galactosamine (0.5 mM) and lignans after 2-hour pre-incubation. TNF-α (100 ng/mL) was added to each well 30 minutes later. The hepatocytes viability was assessed 18 hours later by means of MTT(3-(4,5-dimethylthiazol-2-yl)-2,5-[…] bromide) colorimetric reaction.
The vertical axis of the graph represents cell viability in percentage. The bar of Normal is cell viability in the TNF-α-untreated culture medium. The bar of Control is cell viability in the test compound-untreated culture medium.
TAX, HYL, SIL, and ITX were treated at 200 μM, 100 μM, 50 μM, and 10 μM in the culture medium. Cell viability of each item is shown in the bar graphs.

[5] = system: human HT-1080 fibrosarcoma cells; assay: Antiproliferative activity against cultured cancer cells (MTT), HT-1080; assay type: cell-based; settings: for IC50: Homo sapiens, HT-1080, average of 4 wells
Description: (§1) Compounds of lignans and hongdoushan fractions were tested for their antiproliferative activity against human HT-1080 fibrosarcoma cells and murine colon 26-L5 carcinoma cells. Human HT-1080 fibrosarcoma cells were cultured in the EMEM medium supplemented with 10% FCS (heat-inactivated fetal calf serum) and 0.1% sodium bicarbonate, and 2 mM glutamine. On the other hand, murine colon 26-L5 carcinoma cells were cultured in the RPMI medium containing the same supplements as in the EMEM medium. Cell viability was determined by means of MTT(3-(4,5-dimethylthiazol-2-yl)-2,5-[…] bromide).
(§2) The cells were cultured in a 96-well plate, which was supplemented with a cell suspension medium solution. In this case, each well had approximately 2,000 cells in 100 μL. The cells grew exponentially during the cultivation.
(§3) Twenty four hours later, when the cells adhered to the plate, the medium solution was removed, and then the cells were treated with a test compound medium solution (100 μL) at various concentrations (100 μg/mL, 50 μg/mL, 10 μg/mL, 5 μg/mL, and 1 μg/mL). The cells were cultured at 37° C. under 5% CO2. In this case, the test compounds were first dissolved in DMSO and then diluted in the medium. The concentration of DMSO was adjusted to be finally below 0.25%.
(§4) Next, the medium solution was removed, and the dissolved MTT (100 μL) was added to the medium. After three-hour incubation of the cells, the amount of the formazan formed was measured spectrophotometrically at 550 nm with a plate reader HTS-7000 (manufactured by Perkin Elmer).

[6] = system: murine colon 26-L5 carcinoma cells; assay: Antiproliferative activity against cultured cancer cells (MTT), colon 26-L5; assay type: cell-based; settings: for IC50: Mus musculus, average of 4 wells
Description: as §1, §2, §3, §4

Structure (SMILES)	IC50 [5]	IC50 [6]	ED50 DPPH free radical scavenging [1]	Reduction of blood glucose level [2]	Histopathological observation of hepatic cells (apoptosis) [3]	GOT level in blood serum [3]	GPT level in blood serum [3]	TNF-α level in blood serum [3]	Cell viability [4]	Antiproliferative activity against HT-1080 (in words) [5]	Antiproliferative activity against Colon 26-L5 (in words) [6]	Blood glucose level After administration ([2]; after 10 mg/kg into abdominal cavity 5 times at 12 h intervals (positive control: tolbutamide 200 mg/kg + buformin 1 mg/kg), mean ± SD)	Blood glucose level Before administration ([2]; before administration, mean ± SD, 4 rats)
O=C(O)/C=C/c1ccc(O)c(O)c1 [Caffeic Acid]			5.41 µg/mL (≈ 30 µM)										
COc1cc2c(cc1O)[C@H](c1ccc(O)c(O)c1)[C@@H](CO)[C@H](CO)C2 [ITX, Isotaxiresinol]	43.8 µg/mL (≈ 126 µM)	36.5 µg/mL (≈ 105 µM)		23.6%	less apoptosis corpuscles in the cells and less concentrated chromatins in the cell nucleuses	inhibit the increase	inhibit the increase	inhibit the increase	results similar to that of TAX	showed antiproliferative activity	showed antiproliferative activity		
COc1cc(C[C@@H](CO)[C@H](CO)Cc2ccc(O)c(OC)c2)ccc1O [SIL, Secoisolariciresinol]	5.9 µg/mL (≈ 16.3 µM)	60.2 µg/mL (≈ 166 µM)		33.4%	less apoptosis corpuscles in the cells and less concentrated chromatins in the cell nucleuses	inhibit the increase	inhibit the increase	inhibit the increase	results similar to that of TAX	noticeable antiproliferative activity			
O=c1[nH]cc(F)c(=O)[nH]1 [5-Fluorouracil, reference compound]	0.29 µg/mL (≈ 2.23 µM)	0.07 µg/mL (≈ 0.538 µM)											

More lines, main results first:

IC50 [5]	IC50 [6]	Structure (SMILES)	ED50 DPPH free radical scavenging [1]	Reduction of blood glucose level [2]	Histopathological observation of hepatic cells (apoptosis) [3]	GOT level in blood serum [3]	GPT level in blood serum [3]	TNF-α level in blood serum [3]	Cell viability [4]	Antiproliferative activity against HT-1080 (in words) [5]	Antiproliferative activity against Colon 26-L5 (in words) [6]	Blood glucose level After administration ([2]; after 10 mg/kg into abdominal cavity 5 times at 12 h intervals (positive control: tolbutamide 200 mg/kg + buformin 1 mg/kg), mean ± SD)	Blood glucose level Before administration ([2]; before administration, mean ± SD, 4 rats)
> 100 µg/mL	> 100 µg/mL	COc1cc([C@H]2OC[C@H]([C@@H](O)c3ccc(O)c(OC)c3)[C@@H]2CO)ccc1O [HYL, (7′R)-7′-Hydroxylariciresinol]				inhibit the increase	inhibit the increase	inhibit the increase	results similar to that of TAX				
62.2 µg/mL (≈ 180 µM)	35.2 µg/mL (≈ 102 µM)	COc1cc(C[C@H]2CO[C@H](c3ccc(O)c(O)c3)[C@H]2CO)ccc1O [TAX, Taxiresinol]		20.9%		inhibit the increase	inhibit the increase	inhibit the increase	increased cell viability considerably in a dose-dependent manner	showed antiproliferative activity	showed antiproliferative activity	250.2 ± 35.5 mg/dL	316.1 ± 19.9 mg/dL
